Test results from PMC6709497, “Identification of Novel Trypanosoma cruzi Proteasome Inhibitors Using a Luminescence-Based High-Throughput Screening Assay” (Antimicrobial Agents and Chemotherapy, 2019).
Read-outs that look alike come from different tables or passages of the source. Starred links: 1 amine or outer side, 2 acyl side, 3 side chain; linkers in the order of their positions; H or OH if unused. Non-standard residues stand in square brackets, D forms with d. Residues, ends and D or L forms follow the SMILES beside them. ξ: configuration not given here. *: point of attachment. aminoluciferin = aminoluciferin attached at the C-terminus (luminogenic reporter), O=C(O)[C@H]1CSC(c2nc3ccc(N*)cc3s2)=N1; Suc = O=C(CCC(=O)[*:2])[*:1]; Nva = CCC[C@H](N)C(=O)O; Cbz = O=C(OCc1ccccc1)*; ξL = CC(C)CC(N)C(=O)O

Key:
[1] = design: method as in PMID 28645201; conditions: cited from earlier work
[2] = biological target: T. cruzi proteasome caspase-like activity (Trypanosoma cruzi, UniProt V5BHX1); test: Cell-free T. cruzi proteasome caspase-like activity luminescence assay; format: biochemical; conditions: n = 4; 20 μM Z-Nle-Pro-Nle-Asp-aminoluciferin
Chain of T. cruzi proteasome caspase-like activity (V5BHX1 entry or part of it): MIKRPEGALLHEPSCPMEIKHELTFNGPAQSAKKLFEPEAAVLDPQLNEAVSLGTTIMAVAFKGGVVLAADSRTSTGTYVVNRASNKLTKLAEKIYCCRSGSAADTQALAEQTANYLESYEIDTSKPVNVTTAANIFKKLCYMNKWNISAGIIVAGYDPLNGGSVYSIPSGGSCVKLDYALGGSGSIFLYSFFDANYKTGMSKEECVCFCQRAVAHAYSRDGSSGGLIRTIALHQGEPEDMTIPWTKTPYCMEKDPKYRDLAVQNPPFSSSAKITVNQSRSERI
Source text: (§1) The commercially available Proteasome-Glo 3-substrate system and chymotrypsin-like assay kits (Promega; catalogue no. G8531 and G8622, respectively) were assembled according to the manufacturers’ protocols ([29]) unless otherwise stated. Briefly, Proteasome-Glo buffer was used to formulate the luciferin detection reagent (containing a recombinant thermostable luciferase enzyme) to approximately 0.35% (wt/vol) final assay concentration. The luciferin detection reagent was then mixed with Proteasome-Glo trypsin-, caspase-, or chymotrypsin-like reagents (comprising 15 μM Z-Leu-Arg-Arg-aminoluciferin (Z is benzyloxycarbonyl), 20 μM Z-Nle-Pro-Nle-Asp-aminoluciferin, or 20 μM suc-Leu-Leu-Val-Tyr-aminoluciferin substrate, respectively, at final assay concentrations), and the mixture was allowed to incubate at room temperature for 60 min prior to use. T. cruzi proteasome buffer comprised 50 mM Tris-HCl, pH 7.5, 10 mM sucrose, 5 mM MgCl2, 1 mM dithiothreitol, 2 mM ATP, 150 mM NaCl, 1 mM EDTA, and 0.05 mg/ml bovine serum albumin (BSA). T. cruzi strain Silvio X10/7 epimastigotes were maintained in vitro at 28°C in RTH-fetal calf serum (FCS) culture medium (RPMI 1640 supplemented with 0.4% Trypticase peptone, 0.017 M HEPES, 25 μM hemin, 10% heat-inactivated FCS). Biochemical cell-free assays were performed in an 8-μl final assay volume using 384-well white low-volume plates (Greiner; catalogue no. 784904), and cellular assays were performed in a 50-μl final assay volume using 384-well standard volume plates (Greiner; catalogue no. 781098). Luminescence was read using an EnVision 2102 Multilabel Reader (PerkinElmer, USA) with 0.2-s per well reading time, unless otherwise specified. DMSO or compound was added to the assay plates using Echo acoustic dispensers (Labcyte, USA). Reagent addition for high-throughput screening assays was performed using an Xrd-384 liquid dispenser (FluidX, United Kingdom) and a BioFill Solo/Xrd-384 8-channel resin nozzle (0.5- to 200-μl) tubing cartridge (FluidX; catalogue no. 34-1003). Data analysis was performed using SigmaPlot 12.5 software unless otherwise stated. Z factor values were calculated using the following equation: Z factor = 1 − ({3 × [1.483 × (RLU MAD Max)]} + {3 × [1.483 × (RLU MAD Min)]})/(median RLU Max − median RLU Min), where MAD is the median absolute deviation, Max is the maximum-effect control samples, and Min is the minimum-effect control samples.
(§2) Next, 4 μl of luciferin detection and Proteasome-Glo chymotrypsin-, caspase-, or trypsin-like reagent mixtures were added to initiate the biochemical reaction. The reaction was allowed to proceed at room temperature for 60 min, after which the luminescence was read. Data were acquired from 4 independent replicates (n = 4). Relative luminescence unit (RLU) data were normalized to percent inhibition values relative to 100% effect (DMSO, 1% [vol/vol] final assay concentration in the absence of T. cruzi proteasome enzyme) and 0% effect (DMSO, 1% [vol/vol] final assay concentration with T. cruzi proteasome enzyme) control populations using Microsoft Excel 2013 software. IC50 values were calculated by fitting the concentration-response data for each independent replicate separately to either a four-parameter logistic model or a seven-parameter logistic model with the bottom curve plateau parameter constrained to zero, as shown below.
The four-parameter logistic model is as follows: y=Min+Max−Min/1+(x/IC50)^−Hillslope […]

[3] = biological target: T. cruzi proteasome chymotrypsin-like activity (Trypanosoma cruzi, UniProt V5BU39); test: Cell-free T. cruzi proteasome chymotrypsin-like activity luminescence assay (commercial inhibitors); format: biochemical
Chain of T. cruzi proteasome chymotrypsin-like activity (V5BU39 entry or part of it): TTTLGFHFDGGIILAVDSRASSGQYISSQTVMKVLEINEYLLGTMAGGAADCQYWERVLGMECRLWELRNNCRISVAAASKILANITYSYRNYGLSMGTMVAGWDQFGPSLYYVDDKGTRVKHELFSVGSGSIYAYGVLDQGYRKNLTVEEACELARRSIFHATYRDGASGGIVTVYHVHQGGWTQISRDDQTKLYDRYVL
Chain of T. cruzi proteasome chymotrypsin-like activity (A0A2V2VW62 entry or part of it, further chain): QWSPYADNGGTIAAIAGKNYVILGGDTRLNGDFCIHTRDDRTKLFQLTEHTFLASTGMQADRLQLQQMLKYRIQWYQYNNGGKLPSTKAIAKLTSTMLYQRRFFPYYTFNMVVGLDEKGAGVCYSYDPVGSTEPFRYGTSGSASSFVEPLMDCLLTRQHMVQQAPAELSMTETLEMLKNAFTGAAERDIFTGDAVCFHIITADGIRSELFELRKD
Chain of T. cruzi proteasome chymotrypsin-like activity (V5C017 entry or part of it, further chain): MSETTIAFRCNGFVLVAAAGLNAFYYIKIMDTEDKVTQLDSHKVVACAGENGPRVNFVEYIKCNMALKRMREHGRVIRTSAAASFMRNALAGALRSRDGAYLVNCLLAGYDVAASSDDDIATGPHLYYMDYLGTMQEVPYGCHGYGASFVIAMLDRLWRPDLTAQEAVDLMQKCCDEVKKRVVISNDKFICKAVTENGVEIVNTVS
Source text: as §1, with “T. cruzi strain Silvio X10/7 epimastigotes were maintained in vitro at 28°C in RTH-fetal calf serum (FCS) culture medium (RPMI 1640 supplemented with 0.4% Trypticase peptone, 0.017 M HEPES, 25 μM hemin, 10% heat-inactivated FCS).” left out
as §2
The four-parameter logistic model is as follows: y=Min+Max−Min/1+(x/IC50)^−Hillslope
The seven-parameter logistic model is as follows: y=(Max_1+{Min−Max_1/1+[(x/IC50_1)^Hillslope_1]})+(Max_2−{Max_2/1+[(x/IC50_2)^Hillslope_2]}) […]

[4] = system: T. cruzi strain Silvio X10/7 epimastigotes; test: Cellular T. cruzi epimastigote viability assay; format: cell-based, Trypanosoma cruzi; conditions: 96 h; for EC50: Trypanosoma cruzi, read-out: Cellular pEC50 ± SD (converted)
Method: For the cell viability readout, BacTiter-Glo microbial cell viability reagent (Promega; catalogue no. G8230) was added to each well (25 μl) and incubated at room temperature for 5 min. The plates were then sealed with clear film, and the luminescence was read using a Victor 3 (PerkinElmer, USA) or Pherastar FS (BMG Labtech, Germany) plate reader with a 0.5-s per well reading time. Data for epoxomicin were obtained from three independent replicates (n = 3), and data for all the remaining compounds were acquired from four independent replicates (n = 4). RLU data were normalized to percent inhibition values relative to 100% effect (Nifurtimox) and 0% effect (DMSO; 1% [vol/vol] final assay concentration) control populations. Normalized data for each independent replicate were fitted separately to a four-parameter logistic regression model, and pEC50 {i.e., −log(EC50[M])} values were calculated using IBDS ActivityBase 8.1.2.12 software, after which a mean pEC50 value for each compound was calculated.

[5] = biological target: T. cruzi proteasome trypsin-like activity (Trypanosoma cruzi, UniProt V5BCU3+V5BGL9); test: Cell-free T. cruzi proteasome trypsin-like activity luminescence assay; format: biochemical; conditions: n = 4; 15 μM Z-Leu-Arg-Arg-aminoluciferin
Chain of T. cruzi proteasome trypsin-like activity (V5BGL9 entry or part of it): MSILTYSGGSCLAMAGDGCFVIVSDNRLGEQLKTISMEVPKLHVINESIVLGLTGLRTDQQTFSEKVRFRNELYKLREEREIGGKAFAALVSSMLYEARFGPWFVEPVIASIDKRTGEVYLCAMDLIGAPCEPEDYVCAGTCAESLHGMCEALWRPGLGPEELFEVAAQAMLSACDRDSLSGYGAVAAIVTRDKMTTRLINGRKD
Chain of T. cruzi proteasome trypsin-like activity (V5BCU3 entry or part of it): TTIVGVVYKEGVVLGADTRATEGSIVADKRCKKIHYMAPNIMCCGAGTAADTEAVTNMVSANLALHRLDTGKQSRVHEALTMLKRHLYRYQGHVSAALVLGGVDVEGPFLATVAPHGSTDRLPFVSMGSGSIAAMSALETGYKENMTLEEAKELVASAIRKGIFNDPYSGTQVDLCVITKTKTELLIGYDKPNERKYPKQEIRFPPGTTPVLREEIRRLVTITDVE
Source text: as §1, with “T. cruzi strain Silvio X10/7 epimastigotes were maintained in vitro at 28°C in RTH-fetal calf serum (FCS) culture medium (RPMI 1640 supplemented with 0.4% Trypticase peptone, 0.017 M HEPES, 25 μM hemin, 10% heat-inactivated FCS).” left out, “Reagent addition for high-throughput screening assays was performed using an Xrd-384 liquid dispenser (FluidX, United Kingdom) and a BioFill Solo/Xrd-384 8-channel resin nozzle (0.5- to 200-μl) tubing cartridge (FluidX; catalogue no. 34-1003). Data analysis was performed using SigmaPlot 12.5 software unless otherwise stated.” left out
as §2, with “Data were acquired from 4 independent replicates (n = 4).” left out, “below. […]” for “below.”

[6] = system: T. cruzi proteasome; test: Kinetic-parameter (Km) determination for chymotrypsin-like substrate; format: biochemical, Trypanosoma cruzi; conditions: 95% CI = 78.8 to 108.4 μM; 60-min reaction; n = 3; read-out: apparent steady-state Km
Method: Assay linearity and the optimal amount of T. cruzi proteasome for screening was determined by first serially diluting (1 in 2; CMF = 0.5) the proteasome stock solution in proteasome buffer to generate 10 additional concentrations. Next, 4 μl of each of the T. cruzi proteasome solutions was added to 4 μl of the luciferin detection and Proteasome-Glo chymotrypsin-like reagent mixture. Luminescence was read immediately and then every 90 s for 75 min. Data were acquired from 5 technical replicates (n = 5). To calculate the Michaelis constant (Km) and identify the optimal amount of chymotrypsin-like suc-Leu-Leu-Val-Tyr-aminoluciferin substrate for screening, the Proteasome-Glo chymotrypsin-like assay (Promega; catalogue no. G8622) luciferin detection reagent (comprising luciferase enzyme in Proteasome-Glo buffer) was prepared according to the manufacturers’ protocol ([29]). A 1,200 μM solution (600 μM final assay concentration) of the substrate was prepared and subsequently serially diluted (1 in 2; CMF = 0.5) using the luciferin detection reagent to generate 8 additional concentrations. Next, 4 μl of each of the luciferin detection and substrate solution mixtures was added to 4 μl of partially purified T. cruzi proteasome that was diluted 1 in 4 (CMF = 0.25) from the original stock using proteasome buffer. Luminescence was read immediately and then every 90 s for 75 min. […]

[7] = system: proteasome chymotrypsin-like activity; design: method as in PMID 25308265; conditions: similar assay platform in a cellular system; read-out: Km, approximate value; cited from earlier work
[8] = BacTiter-Glo viability readout, n = 4 (epoxomicin n = 3)

| Compound | Cell-free pIC50 ± SD, Caspase-like [2] [M] | chymotrypsin-like activity dose-response curve shape [3] | EC50 [4, 8] [nM] | Cell-free pIC50 ± SD, Trypsin-like [5] [M] | further results |
| --- | --- | --- | --- | --- | --- |
| O=C(Cn1ccnc1[N+](=O)[O-])NCc1ccccc1 [Benznidazole, benznidazole] |  |  |  |  | treatment discontinuation rate due to side effects [1]: 10% |
| CC(C)C[C@H](NC(=O)[C@H](Cc1ccccc1)NC(=O)c1cnccn1)B(O)O [Bortezomib, bortezomib] | 7.16 ± 0.13 | biphasic | 240 |  | IC30 ([3]; concentration approximately equivalent to IC30, used for spiking test plates): ~4 nM; IC70 ([3]; concentration approximately equivalent to IC70, used for spiking test plates): ~79 nM |
| CC[C@H](C)[C@H](NC(=O)[C@H]([C@@H](C)CC)N(C)C(C)=O)C(=O)N[C@H](C(=O)N[C@@H](CC(C)C)C(=O)[C@@]1(C)CO1)[C@@H](C)O [Epoxomicin, epoxomicin] | 5.85 ± 0.05 |  |  | 6.10 ± 0.06 | EC50 [4]: 63.1 nM |
| CC(C)C[C@H](NC(=O)CNC(=O)c1cc(Cl)ccc1Cl)B(O)O [Ixazomib, ixazomib] | 7.49 ± 0.17 | biphasic | 708 | 5.51 ± 0.07 |  |
| CCC[C@@H](C=O)NC(=O)C(CC(C)C)NC(=O)[C@H](CC(C)C)NC(=O)OCc1ccccc1 (stereo partly drawn) [MG115] (Cbz-Leu-[ξL]-[Nva]-aldehyde) | 4.91 ± 0.10 |  | 4370 | 4.87 ± 0.09 |  |
| CC(C)C[C@@H](C=O)NC(=O)[C@H](CC(C)C)NC(=O)[C@H](CC(C)C)NC(=O)OCc1ccccc1 [MG132] (Cbz-Leu-Leu-Leu-aldehyde) | 6.01 ± 0.09 | biphasic |  | 4.88 ± 0.14 | EC50 [4]: 2450 nM |
| oprozomib |  |  |  |  | Cellular pEC50 ± SD [4, 8]: 6.53 ± 0.32 M |
| succinyl-Leu-Leu-Val-Tyr-aminoluciferin (Suc-LLVY-aminoluciferin; SMILES CC(C)C[C@H](NC(=O)CCC(=O)O)C(=O)N[C@@H](CC(C)C)C(=O)N[C@H](C(=O)N[C@@H](Cc1ccc(O)cc1)C(=O)Nc1ccc2nc(C3=N[C@@H](C(=O)O)CS3)sc2c1)C(C)C) [suc-Leu-Leu-Val-Tyr-aminoluciferin, luminogenic chymotrypsin-like peptide substrate] |  |  |  |  | Km [6]: 93.5 µM; Km [7]: ~60 µM |
